# Measured values from US20160367557A1, “HE[…] ACID DERIVATIVES WHICH ARE USEFUL IN THE TREATMENT, AMELIORATION OR PREVENTION OF A VIRAL DISEASE” (Savira pharmaceuticals GmbH, priority 2012, published 2016).
# pIC50: −log10 of the molar value.
# Key:
# [1] = system: influenza A virus (IAV) A/Aichi/2/68 (H3N2); experiment: Cytopathic effect (CPE) assay; format: cell-based; conditions: MDCK cells, 48 hrs; for pIC50: Influenza A virus, H3N2
smiles,measurement,setting,value
O=C(O)Cc1c[nH]c2nc(Nc3ccccc3)nn2c1=O,melting point,,279 to 281 °C
O=C(O)c1cn(Cc2ccccc2)c2cc(C3CC3)nn2c1=O,melting point,,210 to 215 °C
O=C(O)c1cn(CCc2ccccc2)c2cc(C3CC3)nn2c1=O,melting point,,185 to 190 °C
O=C(O)c1cn(CCc2ccc(O)cc2)c2cc(C3CC3)nn2c1=O,melting point,,265 to 270 °C
O=C(O)c1cn(CCc2ccc(Cl)cc2)c2cc(C3CC3)nn2c1=O,melting point,,220 to 225 °C
COc1ccc(CCn2cc(C(=O)O)c(=O)n3nc(C4CC4)cc23)cc1,melting point,,145 to 150 °C
O=C(O)c1cn(CCc2ccc(C(F)(F)F)cc2)c2cc(C3CC3)nn2c1=O,melting point,,225 to 230 °C
O=C(O)c1cn(CCc2cccc(Cl)c2)c2cc(C3CC3)nn2c1=O,melting point,,230 to 235 °C
O=C(O)c1cn(CCc2cccc(C(F)(F)F)c2)c2cc(C3CC3)nn2c1=O,melting point,,200 to 205 °C
O=C(O)c1cn(CCCc2ccccc2)c2cc(C3CC3)nn2c1=O,melting point,,95 to 100 °C
CC(C)c1cc2n(Cc3ccccc3)cc(C(=O)O)c(=O)n2n1,melting point,,180 to 185 °C
CC(C)c1cc2n(CCc3ccccc3)cc(C(=O)O)c(=O)n2n1,melting point,,220 to 225 °C
O=C(O)c1cn(Cc2ccccc2)c2cc(C3CCCC3)nn2c1=O,melting point,,213 to 215 °C
O=C(O)c1cn(CCc2ccccc2)c2cc(C3CCCC3)nn2c1=O,melting point,,198 to 200 °C
O=C(O)Cc1c[nH]c2cc(C(F)(F)F)nn2c1=O,melting point,,320 to 324 °C
O=C(O)Cc1c[nH]c2cc(C3CC3)nn2c1=O,melting point,,> 300 °C
O=C(NCCc1ccc(Cl)cc1)c1cc2[nH]cc(C(=O)O)c(=O)n2n1,melting point,,> 300 °C
CCOC(=O)c1c[nH]c2nc(NCc3ccccc3)nn2c1=O,melting point,,275 to 278 °C
CCOC(=O)c1c[nH]c2nc(NCc3ccc(Br)cc3)nn2c1=O,melting point,,286 to 287 °C
CCOC(=O)c1c[nH]c2nc(NCc3cccc4ccccc34)nn2c1=O,melting point,,273 to 275 °C
CCOC(=O)c1c[nH]c2nc(Nc3ccc(NC(C)=O)cc3)nn2c1=O,melting point,,> 330 °C
CCOC(=O)c1c[nH]c2nc(Nc3ccc(C)c(Cl)c3)nn2c1=O,melting point,,> 340 °C
CCOC(=O)Cc1c[nH]c2nc(Nc3ccccc3)nn2c1=O,melting point,,255 to 257 °C
CCOC(=O)Cc1c[nH]c2nc(Nc3ccc(OC(C)C)cc3)nn2c1=O,melting point,,235 to 240 °C
CCOC(=O)c1c[nH]c2c(C#N)c(CCCNC)nn2c1=O,melting point,,285 to 287 °C
O=C(O)c1c[nH]c2cc(C3CC3)nn2c1=O,melting point,,275 to 278 °C
O=C(O)c1c[nH]c2cc(C(F)(F)F)nn2c1=O,melting point,,> 340 °C
CCOC(=O)c1cn(Cc2ccccc2)c2cc(C3CC3)nn2c1=O,melting point,,160 to 165 °C
CCOC(=O)c1cn(CCc2ccccc2)c2cc(C3CC3)nn2c1=O,melting point,,155 to 160 °C
CCOC(=O)c1cn(CCc2ccc(O)cc2)c2cc(C3CC3)nn2c1=O,melting point,,95 to 100 °C
CCOC(=O)c1cn(CCc2ccc(OC)cc2)c2cc(C3CC3)nn2c1=O,melting point,,160 to 165 °C
CCOC(=O)c1cn(CCc2cccc(Cl)c2)c2cc(C3CC3)nn2c1=O,melting point,,160 to 165 °C
CCOC(=O)c1cn(CCc2cccc(F)c2)c2cc(C3CC3)nn2c1=O,melting point,,160 to 165 °C
CCOC(=O)c1cn(Cc2ccccc2)c2cc(C(C)C)nn2c1=O,melting point,,135 to 140 °C
CCOC(=O)c1cn(CCc2ccccc2)c2cc(C(C)C)nn2c1=O,melting point,,130 to 135 °C
CCOC(=O)c1cn(CCc2ccccc2)c2cc(C3CCCC3)nn2c1=O,melting point,,162 to 164 °C
CCOC(=O)Cc1c[nH]c2cc(-c3ccccc3)nn2c1=O,melting point,,245 to 250 °C
CCOC(=O)Cc1c[nH]c2cc(C(F)(F)F)nn2c1=O,melting point,,290 to 293 °C
CCOC(=O)Cc1c[nH]c2cc(C3CC3)nn2c1=O,melting point,,280 to 283 °C
CCOC(=O)Cc1cn(C)c2cc(C3CC3)nn2c1=O,melting point,,147 to 150 °C
CCOC(=O)c1c[nH]c2cc(C(=O)NCCc3ccc(Cl)cc3)nn2c1=O,melting point,,> 300 °C
CCOC(=O)c1c[nH]c2cc(C(=O)NC3CCN(Cc4ccccc4)CC3)nn2c1=O,melting point,,264 to 266 °C
CCOC(=O)c1c[nH]c2cc(C(=O)NCc3ccccc3)nn2c1=O,melting point,,290 to 292 °C
O=C(O)c1c[nH]c2nc(NCc3ccccc3)nn2c1=O,melting point,,240 to 245 °C
O=C(O)c1cn(Cc2ccccc2-c2ccccc2)c2sc(NCc3ccccc3)nc2c1=O,pIC50,[1],4.72
COCCNc1nc2c(=O)c(C(=O)O)cn(Cc3ccccc3-c3ccccc3)c2s1,CPE activity in words,[1],inactive
O=C(O)c1cn(Cc2ccccc2-c2ccccc2)c2sc(NS(=O)(=O)c3ccccc3)nc2c1=O,pIC50,[1],4.77
CNc1nc2c(=O)c(C(=O)O)cn(Cc3ccccc3-c3ccccc3)c2s1,CPE activity in words,[1],inactive
O=C(O)c1cn(Cc2ccccc2-c2ccccc2)c2sc(NC3CC3)nc2c1=O,pIC50,[1],4.51
CC(C)Nc1nc2c(=O)c(C(=O)O)cn(Cc3ccccc3-c3ccccc3)c2s1,CPE activity in words,[1],inactive
O=C(O)c1cn(Cc2ccccc2-c2ccccc2)c2sc(N3CCOCC3)nc2c1=O,CPE activity in words,[1],inactive
O=C(O)c1cn(Cc2ccccc2-c2ccccc2)c2sc(NS(=O)(=O)c3cccc(F)c3)nc2c1=O,pIC50,[1],4.72
O=C(O)c1cn(Cc2ccccc2-c2ccccc2)c2sc(NCc3ccc(Cl)cc3)nc2c1=O,pIC50,[1],5.03
O=C(O)c1cn(Cc2ccccc2-c2ccccc2)c2sc(NCc3cccc(Cl)c3)nc2c1=O,pIC50,[1],4.92
COc1ccc(S(=O)(=O)Nc2nc3c(=O)c(C(=O)O)cn(Cc4ccccc4-c4ccccc4)c3s2)cc1,pIC50,[1],4.82
O=C(O)c1cn(Cc2ccccc2-c2ccccc2)c2sc(NS(=O)(=O)c3ccc(Cl)cc3F)nc2c1=O,pIC50,[1],4.96
CS(=O)(=O)Nc1nc2c(=O)c(C(=O)O)cn(Cc3ccccc3-c3ccccc3)c2s1,CPE activity in words,[1],inactive
COc1ccc(CNc2nc3c(=O)c(C(=O)O)cn(Cc4ccccc4-c4ccccc4)c3s2)cc1,pIC50,[1],4.96
CC(Nc1nc2c(=O)c(C(=O)O)cn(Cc3ccccc3-c3ccccc3)c2s1)c1ccccc1 (stereo not shown),pIC50,[1],4.62
O=C(O)c1cn(Cc2ccccc2-c2ccccc2)c2sc(O)nc2c1=O,pIC50,[1],4.48
CCOC(=O)c1cn(Cc2ccccc2-c2ccccc2)c2sc(NS(=O)(=O)c3ccc(Cl)cc3)nc2c1=O,pIC50,[1],4.64
O=C(O)c1cn(C(c2ccccc2)c2ccccc2)c2sc(NS(=O)(=O)c3ccc(Cl)cc3F)nc2c1=O,pIC50,[1],4.59
CCOC(=O)c1cn(C(c2ccccc2)c2ccccc2)c2sc(NS(=O)(=O)c3ccc(OC)cc3)nc2c1=O,pIC50,[1],4.44
CCOC(=O)c1cn(C(c2ccccc2)c2ccccc2)c2sc(NCc3ccc(Cl)cc3)nc2c1=O,pIC50,[1],4.35
COc1ccc(CNc2nc3c(=O)c(C(=O)O)cn(Cc4ccc(Cl)cc4-c4ccccc4)c3s2)cc1,pIC50,[1],4.66
O=C(O)c1cn(C(c2ccccc2)c2ccccc2)c2sc(NCc3cccc(Cl)c3)nc2c1=O,pIC50,[1],4.49
COc1ccc(S(=O)(=O)Nc2nc3c(=O)c(C(=O)O)cn(C(c4ccccc4)c4ccccc4)c3s2)cc1,pIC50,[1],4.51
CCOC(=O)c1cn(C(c2ccccc2)c2ccccc2)c2sc(NCc3cccc(Cl)c3)nc2c1=O,pIC50,[1],4.57
O=C(O)c1cn(C(c2ccccc2)c2ccccc2)c2sc(O)nc2c1=O,pIC50,[1],4.33
O=C(O)c1cn(Cc2ccc(Cl)cc2-c2ccccc2)c2sc(O)nc2c1=O,pIC50,[1],4.74
O=C(O)c1cn(C(c2ccccc2)c2ccccc2)c2sc(NCc3ccccc3)nc2c1=O,pIC50,[1],4.85
O=C(O)c1cn(Cc2ccccc2-c2ccccc2)c2sc(NS(=O)(=O)Cc3ccc(Cl)cc3Cl)nc2c1=O,pIC50,[1],4.70
COc1ccc(S(=O)(=O)Nc2nc3c(=O)c(C(=O)O)cn(Cc4ccccc4-c4ccc(Cl)cc4)c3s2)cc1,pIC50,[1],5.05
O=C(O)c1cn(Cc2ccccc2-c2ccccc2)c2scnc2c1=O,CPE activity in words,[1],inactive
N#Cc1ccc(S(=O)(=O)Nc2nc3c(=O)c(C(=O)O)cn(Cc4ccccc4-c4ccc(Cl)cc4)c3s2)cc1,pIC50,[1],4.85
Nc1nc2c(=O)c(C(=O)O)cn(Cc3ccccc3-c3ccccc3)c2s1,CPE activity in words,[1],inactive
O=C(O)c1c[nH]c2cc(C3CCCC3)nn2c1=O,CPE activity in words,[1],inactive
CC(C)c1cc2n(CCCc3ccccc3)cc(C(=O)O)c(=O)n2n1,CPE activity in words,[1],inactive
CC(C)c1cc2[nH]cc(C(=O)O)c(=O)n2n1,CPE activity in words,[1],inactive
CS(=O)(=O)n1cc(C(=O)O)c(=O)n2nc(N)cc12,CPE activity in words,[1],inactive
Nc1cc2n(Cc3ccccc3-c3ccccc3)cc(C(=O)O)c(=O)n2n1,CPE activity in words,[1],inactive
O=C(O)c1cn(Cc2ccccc2-c2ccccc2)c2ccnn2c1=O,CPE activity in words,[1],inactive
Nc1cc2n(S(=O)(=O)c3ccccc3)cc(C(=O)O)c(=O)n2n1,CPE activity in words,[1],inactive
Nc1cc2n(S(=O)(=O)Cc3ccccc3)cc(C(=O)O)c(=O)n2n1,CPE activity in words,[1],inactive
O=C(O)c1c[nH]c2ccnn2c1=O [drawing 207],CPE activity in words,[1],inactive
O=C(O)c1c[nH]c2nc(NCc3ccccc3)nn2c1=O [drawing 211],CPE activity in words,[1],inactive
Nc1cc2n(C(=O)C3(c4ccccc4)CCCC3)cc(C(=O)O)c(=O)n2n1 [drawing 213],CPE activity in words,[1],inactive
O=C(O)c1cn(CCc2cccc(Cl)c2)c2cc(C3CC3)nn2c1=O [drawing 215],CPE activity in words,[1],inactive
O=C(O)c1cn(CCc2cccc(F)c2)c2cc(C3CC3)nn2c1=O [drawing 216],CPE activity in words,[1],inactive
O=C(O)c1cn(CCc2ccccc2)c2cc(C3CCCC3)nn2c1=O [drawing 218],CPE activity in words,[1],inactive
CCOC(=O)c1cn(CCc2ccc(O)cc2)c2cc(C3CC3)nn2c1=O [drawing 220],CPE activity in words,[1],inactive
O=C(O)c1cn(CCc2cccc(C(F)(F)F)c2)c2cc(C3CC3)nn2c1=O [drawing 221],CPE activity in words,[1],inactive
O=C(O)c1cn(CCc2ccc(O)cc2)c2cc(C3CC3)nn2c1=O [drawing 222],CPE activity in words,[1],inactive
COc1ccc(CCn2cc(C(=O)O)c(=O)n3nc(C4CC4)cc23)cc1 [drawing 223],CPE activity in words,[1],inactive
